Test results published in patent US9809573B2, “Substituted pyridine derivatives useful as GSK-3 inhibitors” (priority 2013, dated 2017).
Read-outs that look alike come from different tables or passages of the source.

Key:
GSK3β = GSK3β (Homo sapiens, UniProt P49841); experiment: GSK3β kinase assay (Caliper LabChip3000, fluoresceinated peptide substrate); assay type: biochemical
How it was run: (§1)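 Reactions run 20 hours at room temperature, stopped with EDTA. Phosphorylated and unphosphorylated fluoresceinated peptide separated electrophoretically on Caliper LabChip3000. Eleven compound concentrations tested; IC50 by non-linear regression.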

GSK3α = GSK3α (Homo sapiens, UniProt P49840); experiment: biochemical
Chain of GSK3α (P49840 whole entry, species assumed): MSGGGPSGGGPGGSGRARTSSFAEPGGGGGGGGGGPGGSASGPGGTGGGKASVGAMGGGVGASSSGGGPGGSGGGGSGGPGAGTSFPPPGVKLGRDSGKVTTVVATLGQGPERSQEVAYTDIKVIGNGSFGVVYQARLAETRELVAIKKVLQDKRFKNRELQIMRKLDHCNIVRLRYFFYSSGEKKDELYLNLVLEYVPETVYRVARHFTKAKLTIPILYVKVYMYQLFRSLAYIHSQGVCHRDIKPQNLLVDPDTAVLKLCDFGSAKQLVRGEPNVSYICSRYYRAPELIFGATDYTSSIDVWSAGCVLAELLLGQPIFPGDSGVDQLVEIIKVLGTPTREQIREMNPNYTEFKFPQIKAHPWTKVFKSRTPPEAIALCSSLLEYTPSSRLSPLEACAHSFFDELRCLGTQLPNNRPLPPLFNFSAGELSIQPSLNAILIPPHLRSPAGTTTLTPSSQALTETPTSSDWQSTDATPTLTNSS
How it was run: as §1

pTau = pTau assay (method not described); assay type: cell-based
[1] = first value of the cell, 250 pM enzyme, 20 uM ATP, 20 hours at room temperature, read-out: GSK3β/α (nM): GSK3β IC50
[2] = second value of the cell, 250 pM enzyme, 20 uM ATP, 20 hours at room temperature, read-out: GSK3β/α (nM): GSK3α IC50

Chain of GSK3β (P49841 whole entry, species assumed): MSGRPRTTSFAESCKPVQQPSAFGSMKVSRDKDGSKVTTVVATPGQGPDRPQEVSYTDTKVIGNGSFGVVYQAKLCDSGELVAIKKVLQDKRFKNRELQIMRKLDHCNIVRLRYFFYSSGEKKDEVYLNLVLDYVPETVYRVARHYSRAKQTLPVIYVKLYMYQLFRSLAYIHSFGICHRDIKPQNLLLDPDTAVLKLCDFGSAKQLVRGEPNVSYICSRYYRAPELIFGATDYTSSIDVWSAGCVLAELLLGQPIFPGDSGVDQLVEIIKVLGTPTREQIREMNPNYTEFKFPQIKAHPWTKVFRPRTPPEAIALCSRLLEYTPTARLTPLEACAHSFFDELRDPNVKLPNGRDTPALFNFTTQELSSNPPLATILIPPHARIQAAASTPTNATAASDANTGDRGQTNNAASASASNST

| IC50 (GSK3β; [1]) [nM] | IC50 (GSK3α; [2]) [nM] | IC50 (pTau; read-out: pTau) [nM] | IC50 (GSK3α) [nM] | IC50 (pTau; read-out: pTau (nM)) [nM] | Compound | IC50 (GSK3β) [nM] |
| --- | --- | --- | --- | --- | --- | --- |
| 13 | 5 | 120 |  |  | O=C(Nc1cnccc1-c1ccc(OC(F)(F)F)cc1F)c1ccnc(NC(=O)C2CC2)c1 [Example 94, 2-(Cyclopropanecarboxamido)-N-(4-(2-fluoro-4-(trifluoromethoxy)phenyl)pyridin-3-yl)isonicotinamide] |  |
| 1.9 | 1.4 | 100 |  |  | O=C(Nc1cnccc1-c1cc2ccccc2o1)c1ccnc(NC(=O)C2CC2)c1 [Example 95, N-(4-(benzofuran-2-yl)pyridin-3-yl)-2-(cyclopropanecarboxamido)isonicotinamide] |  |
| 4.1 | 1.7 | 66 |  |  | Cn1c(-c2ccncc2NC(=O)c2ccnc(NC(=O)C3CC3)c2)cc2ccccc21 [Example 96, 2-(Cyclopropanecarboxamido)-N-(4-(1-methyl-1H-indol-2-yl)pyridin-3-yl)isonicotinamide] |  |
| 1.1 | 8.5 | 870 |  |  | CC1(C)CC1C(=O)Nc1cc(C(=O)Nc2cnccc2-c2ccccc2)ccn1 (stereo not drawn) [Example 97, 2-(2,2-Dimethylcyclopropanecarboxamido)-N-(4-phenylpyridin-3-yl)isonicotinamide] |  |
| 11 | 17 | 1400 |  |  | O=C(Nc1cnccc1-c1ccccc1)c1ccnc(NC(=O)C2CC2(F)F)c1 (stereo not drawn) [Example 98, 2-(2,2-Difluorocyclopropanecarboxamido)-N-(4-phenylpyridin-3-yl)isonicotinamide] |  |
| 26 | 7.5 | 350 |  |  | CC1CC1C(=O)Nc1cc(C(=O)Nc2cnccc2-c2ccccc2)ccn1 (stereo not drawn) [Example 100, 2-(2-Methylcyclopropanecarboxamido)-N-(4-phenylpyridin-3-yl)isonicotinamide] |  |
| 30 | 13 | 3100 |  |  | COC(=O)c1cncc(NC(=O)c2ccnc(NC(=O)C3CC3)c2)c1 [Example 101, Methyl 5-(2-(cyclopropanecarboxamido)isonicotinamido)nicotinate] |  |
| 197 | 121 | ≥ 10000 |  |  | O=C(O)c1cncc(NC(=O)c2ccnc(NC(=O)C3CC3)c2)c1 [Example 103, 5-(2-(cyclopropanecarboxamido)isonicotinamido)nicotinic Acid] |  |
|  |  |  | 2 | 270 | O=C(Nc1cncc(-c2ccccc2)c1)c1ccnc(NC(=O)C2CC2)c1 [Example 104, 2-(cyclopropanecarboxamido)-N-(5-phenylpyridin-3-yl)isonicotinamide] | 5 |
| 6.5 | 3.6 | 6900 |  |  | NC(=O)c1cncc(NC(=O)c2ccnc(NC(=O)C3CC3)c2)c1 [Example 105, 5-(2-(cyclopropanecarboxamido)isonicotinamido)nicotinamide] |  |
| 73 | 11 | 5600 |  |  | O=C(Nc1cncc(Cc2ccccc2)c1)c1ccnc(NC(=O)C2CC2)c1 [Example 110, N-(5-benzylpyridin-3-yl)-2-(cyclopropanecarboxamido)isonicotinamide] |  |
| 1.6 | 1.3 | 990 |  |  | O=C(Nc1cncc(-c2ccc(F)cc2F)c1)c1ccnc(NC(=O)C2CC2)c1 [Example 114, 2-(cyclopropanecarboxamido)-N-(5-(2,4-difluorophenyl)pyridin-3-yl)isonicotinamide] |  |
| 4.1 | 4.3 | 780 |  |  | N#Cc1ccc(-c2cncc(NC(=O)c3ccnc(NC(=O)C4CC4)c3)c2)cc1 [Example 115, N-(5-(4-cyanophenyl)pyridin-3-yl)-2-(cyclopropanecarboxamido)isonicotinamide] |  |
|  |  |  | 0.28 | 180 | O=C(Nc1cncc(-c2ccccc2F)c1)c1ccnc(NC(=O)C2CC2)c1 [Example 116, 2-(cyclopropanecarboxamido)-N-(5-(2-fluorophenyl)pyridin-3-yl)isonicotinamide] | 0.35 |
| 1.5 | 0.74 | 330 |  |  | O=C(Nc1cncc(-n2cccn2)c1)c1ccnc(NC(=O)C2CC2)c1 [Example 118, N-(5-(1H-pyrazol-1-yl)pyridin-3-yl)-2-(cyclopropanecarboxamido)isonicotinamide] |  |
| 2.4 | 1 | 410 |  |  | O=C(Nc1cncc(-n2ccnc2)c1)c1ccnc(NC(=O)C2CC2)c1 [Example 119, N-(5-(1H-imidazol-1-yl)pyridin-3-yl)-2-(cyclopropanecarboxamido)isonicotinamide] |  |
| 11 | 8 | 5400 |  |  | O=C(Nc1cncc(-c2ccc(OC(F)(F)F)cc2)c1)c1ccnc(NC(=O)C2CC2)c1 [Example 120, 2-(cyclopropanecarboxamido)-N-(5-(4-(trifluoromethoxy)phenyl)pyridin-3-yl)isonicotinamide] |  |
| 12 | 6.1 | 510 |  |  | O=C(Nc1cncc(-c2ccccc2C(F)(F)F)c1)c1ccnc(NC(=O)C2CC2)c1 [Example 124, 2-(cyclopropanecarboxamido)-N-(5-(2-(trifluoromethyl)phenyl)pyridin-3-yl)isonicotinamide] |  |
|  |  |  | 0.76 | 100 | O=C(Nc1cncc(-c2cc(F)ccc2F)c1)c1ccnc(NC(=O)C2CC2)c1 [Example 142, 2-(cyclopropanecarboxamido)-N-(5-(2,5-difluorophenyl)pyridin-3-yl)isonicotinamide] | 1.5 |
| 780 | 170 | 1400 |  |  | CN(C)Cc1ccccc1-c1cncc(NC(=O)c2ccnc(NC(=O)C3CC3)c2)c1 [Example 145, 2-(cyclopropanecarboxamido)-N-(5-(2-((dimethylamino)methyl)phenyl)pyridin-3-yl)isonicotinamide] |  |
| 27 | 5.9 | 950 |  |  | O=C(Nc1cncc(-c2cccc3[nH]ccc23)c1)c1ccnc(NC(=O)C2CC2)c1 [Example 147, N-(5-(1H-indol-4-yl)pyridin-3-yl)-2-(cyclopropanecarboxamido)isonicotinamide] |  |
| 9.7 | 2.4 | 620 |  |  | O=C(Nc1cncc(-c2ccc(Cl)cc2Cl)c1)c1ccnc(NC(=O)C2CC2)c1 [Example 148, 2-(cyclopropanecarboxamido)-N-(5-(2,4-dichlorophenyl)pyridin-3-yl)isonicotinami] |  |
| 8.8 | 3.1 | 240 |  |  | Cn1ccc(-c2cncc(NC(=O)c3ccnc(NC(=O)C4CC4)c3)c2)c1 [Example 151, 2-(cyclopropanecarboxamido)-N-(5-(1-methyl-1H-pyrrol-3-yl)pyridin-3-yl)isonicotinamide] |  |
| 9.1 | 3.3 | 770 |  |  | O=C(Nc1cncc(-c2cccc(Cl)c2)c1)c1ccnc(NC(=O)C2CC2)c1 [Example 155, N-(5-(3-chlorophenyl)pyridin-3-yl)-2-(cyclopropanecarboxamido)isonicotinamide] |  |
| 11 | 3.6 | 420 |  |  | O=C(Nc1cncc(-c2cccc(N3CCOCC3)c2)c1)c1ccnc(NC(=O)C2CC2)c1 [Example 156, 2-(cyclopropanecarboxamido)-N-(5-(3-morpholinophenyl)pyridin-3-yl)isonicotinamide] |  |
| 7.9 | 3.3 | 670 |  |  | O=C(Nc1cncc(-c2cccc(OC(F)F)c2)c1)c1ccnc(NC(=O)C2CC2)c1 [Example 157, 2-(cyclopropanecarboxamido)-N-(5-(3-(difluoromethoxy)phenyl)pyridin-3-yl)isonicotinamide] |  |

| Compound | IC50 (GSK3β; [1]) [nM] | IC50 (GSK3α; [2]) [nM] | IC50 (pTau; read-out: pTau) [nM] | IC50 (GSK3α) [nM] | IC50 (pTau; read-out: pTau (nM)) [nM] | IC50 (GSK3β) [nM] |
| --- | --- | --- | --- | --- | --- | --- |
| Cc1cncc(NC(=O)c2ccnc(NC(=O)C3CC3)c2)c1 [Example 102, 2-(cyclopropanecarboxamido)-N-(5-methylpyridin-3-yl)isonicotinamide] |  | 5.4 | 740 |  |  | 9.5 |
| O=C(Nc1cncc(-c2ccncc2)c1)c1ccnc(NC(=O)C2CC2)c1 [Example 106, N-([3,4′-bipyridin]-5-yl)-2-(cyclopropanecarboxamido)isonicotinamide] |  | 2.5 | 320 |  |  | 4.8 |
| O=C(Nc1cncc(Oc2ccccc2)c1)c1ccnc(NC(=O)C2CC2)c1 [Example 107, 2-(cyclopropanecarboxamido)-N-(5-phenoxypyridin-3-yl)isonicotinamide] |  | 9.1 | 3300 |  |  | 19 |
| O=C(Nc1cncc(N2CCCCC2)c1)c1ccnc(NC(=O)C2CC2)c1 [Example 108, 2-(cyclopropanecarboxamido)-N-(5-(piperidin-1-yl)pyridin-3-yl)isonicotinamide] |  | 23 | 5400 |  |  | 130 |
| O=C(Nc1cncc(N2CCOCC2)c1)c1ccnc(NC(=O)C2CC2)c1 [Example 109, 2-(cyclopropanecarboxamido)-N-(5-morpholinopyridin-3-yl)isonicotinamide] |  | 17 | 2000 |  |  | 73 |
| O=C(Nc1cncc(-c2ccc(F)cc2)c1)c1ccnc(NC(=O)C2CC2)c1 [Example 111, 2-(cyclopropanecarboxamido)-N-(5-(4-fluorophenyl)pyridin-3-yl)isonicotinamide] |  | 0.95 | 570 |  |  | 6.4 |
| O=C(Nc1cncc(C2CCC2)c1)c1ccnc(NC(=O)C2CC2)c1 [Example 113, N-(5-cyclobutylpyridin-3-yl)-2-(cyclopropanecarboxamido)isonicotinamide] |  | 1.75 | 330 |  |  | 1 |
| COc1ccccc1-c1cncc(NC(=O)c2ccnc(NC(=O)C3CC3)c2)c1 [Example 123, 2-(cyclopropanecarboxamido)-N-(5-(2-methoxyphenyl)pyridin-3-yl)isonicotinamide] |  | 1.4 |  |  | 200 | 3.7 |
